According to patent US10336739B2, “4-hydroxy-3-(heteroaryl)pyridine-2-one APJ agonists” (BRISTOL-MYERS SQUIBB COMPANY, priority 2015, dated 2019):

Biological target: human APJ receptor (Homo sapiens (Human), UniProt P35414)
Test: Intracellular cAMP accumulation assay (APJ hcAMP, HTRF)
Type: cell-based
Details: HEK293 cells stably expressing human APJ receptor; inhibition of forskolin-mediated cAMP production; read-out: Human APJ cAMP EC50 Potency range
In short: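 HEK293 cells stably expressing human APJ, 5,000 per well, exposed to compound with […] IBMX and 2 μM forskolin for 30 minutes at room temperature. cAMP measured by HTRF after lysis and 60 min detection incubation. EC50 from sigmoidal variable-slope fits of inhibition of forskolin-induced cAMP, quantified against a cAMP standard curve.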

human APJ receptor, sequence (P35414 whole entry): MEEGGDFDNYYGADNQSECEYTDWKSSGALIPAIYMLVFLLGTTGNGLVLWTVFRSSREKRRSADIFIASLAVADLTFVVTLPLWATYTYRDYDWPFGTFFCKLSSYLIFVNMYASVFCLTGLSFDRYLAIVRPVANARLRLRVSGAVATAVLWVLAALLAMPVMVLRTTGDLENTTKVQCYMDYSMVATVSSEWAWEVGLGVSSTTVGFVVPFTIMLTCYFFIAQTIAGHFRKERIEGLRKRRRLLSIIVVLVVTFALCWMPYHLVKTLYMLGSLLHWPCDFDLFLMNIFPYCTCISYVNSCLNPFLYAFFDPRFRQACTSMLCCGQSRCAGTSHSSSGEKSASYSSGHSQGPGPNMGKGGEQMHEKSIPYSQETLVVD

Row | EC50 [nM] | SMILES
1 | 10 to 100 | CCCCc1[nH]c(=O)c(-c2nnc(Cc3csc(C)n3)o2)c(O)c1-c1cccc(CC)c1 [Example 137, 6-butyl-5-(3-ethylphenyl)-4-hydroxy-3-{5-[(2-methyl-1,3-thiazol-4-yl)methyl]-1,3,4-oxadiazol-2-yl}-1,2-dihydropyridin-2-one]

Same assay, conditions: HEK293 cells stably expressing human APJ receptor; inhibition of forskolin-mediated cAMP production; read-out: hAPJ cAMP EC50 Potency range

Row | SMILES | EC50 [nM]
2 | CCOCc1nc(O)c(-c2nnc(Cn3ccnc3)o2)c(O)c1-c1c(OC)cccc1OC [Example 125, 5-(2,6-dimethoxyphenyl)-6-(ethoxymethyl)-3-[5-(1H-imidazol-1-ylmethyl)-1,3,4-oxadiazol-2-yl]pyridine-2,4-diol] | 10 to 100
3 | CCOCc1nc(O)c(-c2nnc(Cn3ccc(C(F)(F)F)n3)o2)c(O)c1-c1c(OC)cccc1OC [Example 129, 5-(2,6-dimethoxyphenyl)-6-(ethoxymethyl)-3-(5-{[3-(trifluoromethyl)-1H-pyrazol-1-yl]methyl}-1,3,4-oxadiazol-2-yl)pyridine-2,4-diol] | 10 to 100
4 | CCOCc1nc(O)c(-c2nnc(Cc3cnn(C)c3)o2)c(O)c1-c1c(OC)cccc1OC [Example 130, 5-(2,6-dimethoxyphenyl)-6-(ethoxymethyl)-3-{5-[(1-methyl-1H-pyrazol-4-yl)methyl]-1,3,4-oxadiazol-2-yl}pyridine-2,4-diol] | 10 to 100
5 | CCOCc1nc(O)c(-c2nnc(Cn3ccc4ccccc43)o2)c(O)c1-c1c(OC)cccc1OC [Example 136, 5-(2,6-dimethoxyphenyl)-6-(ethoxymethyl)-3-[5-(1H-indol-1-ylmethyl)-1,3,4-oxadiazol-2-yl]pyridine-2,4-diol] | 10 to 100
6 | CCCCc1nc(O)c(-c2nnc(Cc3noc4ccccc34)o2)c(O)c1-c1ccccc1 [Example 138, 3-[5-(1,2-benzoxazol-3-ylmethyl)-1,3,4-oxadiazol-2-yl]-6-butyl-5-phenylpyridine-2,4-diol] | 10 to 100
7 | CCCCc1nc(O)c(-c2nnc(Cc3ccc(F)c(F)c3)o2)c(O)c1-c1cccc(OC)c1 [Example 139, 6-butyl-3-{5-[(3,4-difluorophenyl)methyl]-1,3,4-oxadiazol-2-yl}-5-(3-methoxyphenyl) pyridine-2,4-diol] | 10 to 100
8 | CCCCc1nc(O)c(-c2nnc(Cc3ccc(F)c(F)c3)o2)c(O)c1-c1cccc(CC)c1 [Example 140, 6-butyl-3-{5-[(3,4-difluorophenyl)methyl]-1,3,4-oxadiazol-2-yl}-5-(3-ethylphenyl) pyridine-2,4-diol] | 10 to 100
9 | CCCCc1nc(O)c(-c2nnc(Cc3ccc(F)c(F)c3)o2)c(O)c1-c1cccc(OC(F)(F)F)c1 [Example 141, 6-butyl-3-{5-[(3,4-difluorophenyl)methyl]-1,3,4-oxadiazol-2-yl}-5-[3-(trifluoromethoxy)phenyl]pyridine-2,4-diol] | 10 to 100
10 | CCCCc1nc(O)c(-c2nnc(Cc3ccc(F)c(F)c3)o2)c(O)c1-c1cccc(OCc2ccccc2)c1 [Example 142, 5-[3-(benzyloxy)phenyl]-6-butyl-3-{5-[(3,4-difluorophenyl)methyl]-1,3,4-oxadiazol-2-yl}pyridine-2,4-diol] | 10 to 100
11 | CCCCc1nc(O)c(-c2nnc(Cc3ccc(F)c(F)c3)o2)c(O)c1C1=CCCCC1 [Example 144, 6-butyl-5-(cyclohex-1-en-1-yl)-3-{5-[(3,4-difluorophenyl)methyl]-1,3,4-oxadiazol-2-yl}pyridine-2,4-diol] | 10 to 100
12 | CCCCc1nc(O)c(-c2nnc(Cc3ccc(F)c(F)c3)o2)c(O)c1-c1cccc(C(C)C)c1 [Example 145, 6-butyl-3-{5-[(3,4-difluorophenyl)methyl]-1,3,4-oxadiazol-2-yl}-5-[3-(propan-2-yl)phenyl]pyridine-2,4-diol] | 10 to 100
13 | CCCCc1nc(O)c(-c2nnc(Cc3ccc(F)c(F)c3)o2)c(O)c1-c1cccc(COC)c1 [Example 146, 6-butyl-3-{5-[(3,4-difluorophenyl)methyl]-1,3,4-oxadiazol-2-yl}-5-[3-(methoxymethyl)phenyl]pyridine-2,4-diol] | 10 to 100
14 | CCCCc1nc(O)c(-c2nnc(Cc3ccc(F)c(F)c3)o2)c(O)c1-c1cccc(C(=O)NC(C)C)c1 [Example 147, 3-(2-butyl-5-{5-[(3,4-difluorophenyl)methyl]-1,3,4-oxadiazol-2-yl}-4,6-dihydroxypyridin-3-yl)-N-(propan-2-yl)benzamide] | 10 to 100
15 | CCCCc1[nH]c(=O)c(-c2nnc(Cc3csc(C)n3)o2)c(O)c1-c1cccc(OC)c1 [Example 151, 6-butyl-4-hydroxy-5-(3-methoxyphenyl)-3-{5-[(2-methyl-1,3-thiazol-4-yl)methyl]-1,3,4-oxadiazol-2-yl}-1,2-dihydropyridin-2-one] | 0.01 to 10
16 | CCCCc1[nH]c(=O)c(-c2nnc(Cc3csc(C)n3)o2)c(O)c1-c1cccc(CO)c1 [Example 152, 6-butyl-4-hydroxy-5-[3-(hydroxymethyl)phenyl]-3-{5-[(2-methyl-1,3-thiazol-4-yl)methyl]-1,3,4-oxadiazol-2-yl}-1,2-dihydropyridin-2-one] | 10 to 100

Now from value to molecule:

Row | EC50 [nM] | SMILES
17 | 0.01 to 10 | CCOCc1nc(O)c(-c2nnc(Cc3ccc(Cl)c(F)c3)o2)c(O)c1-c1c(OC)cccc1OC [Example 122, 3-{5-[(4-chloro-3-fluorophenyl)methyl]-1,3,4-oxadiazol-2-yl}-5-(2,6-dimethoxyphenyl)-6-(ethoxymethyl) pyridine-2,4-diol]
18 | 0.01 to 10 | CCOCc1nc(O)c(-c2nnc(Cc3ccc(Cl)cc3F)o2)c(O)c1-c1c(OC)cccc1OC [Example 123, 3-{5-[(4-chloro-2-fluorophenyl)methyl]-1,3,4-oxadiazol-2-yl}-5-(2,6-dimethoxyphenyl)-6-(ethoxymethyl) pyridine-2,4-diol]
19 | 0.01 to 10 | CCOCc1nc(O)c(-c2nnc(Cc3ccc(F)cn3)o2)c(O)c1-c1c(OC)cccc1OC [Example 124, 5-(2,6-dimethoxyphenyl)-6-(ethoxymethyl)-3-{5-[(5-fluoropyridin-2-yl)methyl]-1,3,4-oxadiazol-2-yl}pyridine-2,4-diol]
20 | 0.01 to 10 | CCOCc1nc(O)c(-c2nnc(Cc3ccc(C)c(F)c3)o2)c(O)c1-c1c(OC)cccc1OC [Example 126, 5-(2,6-dimethoxyphenyl)-6-(ethoxymethyl)-3-{5-[(3-fluoro-4-methylphenyl)methyl]-1,3,4-oxadiazol-2-yl}pyridine-2,4-diol]
21 | 0.01 to 10 | CCOCc1nc(O)c(-c2nnc(Cc3ccc(Cl)cn3)o2)c(O)c1-c1c(OC)cccc1OC [Example 127, 3-{5-[(5-chloropyridin-2-yl)methyl]-1,3,4-oxadiazol-2-yl}-5-(2,6-dimethoxyphenyl)-6-(ethoxymethyl) pyridine-2,4-diol]
22 | 0.01 to 10 | CCOCc1nc(O)c(-c2nnc(Cn3ccc(-c4ccccc4)n3)o2)c(O)c1-c1c(OC)cccc1OC [Example 128, 5-(2,6-dimethoxyphenyl)-6-(ethoxymethyl)-3-{5-[(3-phenyl-1H-pyrazol-1-yl)methyl]-1,3,4-oxadiazol-2-yl}pyridine-2,4-diol]
23 | 0.01 to 10 | CCOCc1nc(O)c(-c2nnc(Cc3ccc(F)nc3)o2)c(O)c1-c1c(OC)cccc1OC [Example 131, 5-(2,6-dimethoxyphenyl)-6-(ethoxymethyl)-3-{5-[(6-fluoropyridin-3-yl)methyl]-1,3,4-oxadiazol-2-yl}pyridine-2,4-diol]
24 | 0.01 to 10 | CCOCc1nc(O)c(-c2nnc(Cc3n[nH]c4ccccc34)o2)c(O)c1-c1c(OC)cccc1OC [Example 132, 5-(2,6-dimethoxyphenyl)-6-(ethoxymethyl)-3-[5-(1H-indazol-3-ylmethyl)-1,3,4-oxadiazol-2-yl]pyridine-2,4-diol]
25 | 0.01 to 10 | CCOCc1nc(O)c(-c2nnc(Cn3nnc4ccccc43)o2)c(O)c1-c1c(OC)cccc1OC [Example 133, 3-[5-(1H-1,2,3-benzotriazol-1-ylmethyl)-1,3,4-oxadiazol-2-yl]-5-(2,6-dimethoxyphenyl)-6-(ethoxymethyl) pyridine-2,4-diol]
26 | 0.01 to 10 | CCOCc1nc(O)c(-c2nnc(Cn3ncc4ccccc43)o2)c(O)c1-c1c(OC)cccc1OC [Example 134, 5-(2,6-dimethoxyphenyl)-6-(ethoxymethyl)-3-[5-(1H-indazol-1-ylmethyl)-1,3,4-oxadiazol-2-yl]pyridine-2,4-diol]
27 | 0.01 to 10 | CCOCc1nc(O)c(-c2nnc(Cc3ccc(F)cc3)o2)c(O)c1-c1c(OC)cccc1OC [Example 135, 5-(2,6-dimethoxyphenyl)-6-(ethoxymethyl)-3-{5-[(4-fluorophenyl)methyl]-1,3,4-oxadiazol-2-yl}pyridine-2,4-diol]
28 | 0.01 to 10 | CCCCc1nc(O)c(-c2nnc(Cc3ccc(F)c(F)c3)o2)c(O)c1-c1cccc(CO)c1 [Example 143, 6-butyl-3-{5-[(3,4-difluorophenyl)methyl]-1,3,4-oxadiazol-2-yl}-5-[3-(hydroxymethyl)phenyl]pyridine-2,4-diol]
29 | 0.01 to 10 | CCCCc1[nH]c(=O)c(-c2nnc(Cc3csc(C)n3)o2)c(O)c1-c1cccc(C(C)C)c1 [Example 148, 6-butyl-4-hydroxy-3-{5-[(2-methyl-1,3-thiazol-4-yl)methyl]-1,3,4-oxadiazol-2-yl}-5-[3-(propan-2-yl)phenyl]-1,2-dihydropyridin-2-one]
30 | 0.01 to 10 | CCCCc1[nH]c(=O)c(-c2nnc(Cc3csc(C)n3)o2)c(O)c1-c1cccc(C(=O)NC(C)C)c1 [Example 149, 3-(2-butyl-4-hydroxy-5-{5-[(2-methyl-1,3-thiazol-4-yl)methyl]-1,3,4-oxadiazol-2-yl}-6-oxo-1,6-dihydropyridin-3-yl)-N-(propan-2-yl)benzamide]
31 | 0.01 to 10 | CCCCc1[nH]c(=O)c(-c2nnc(Cc3csc(C)n3)o2)c(O)c1-c1cccc(C2CC2)c1 [Example 150, 6-butyl-5-(3-cyclopropylphenyl)-4-hydroxy-3-{5-[(2-methyl-1,3-thiazol-4-yl)methyl]-1,3,4-oxadiazol-2-yl}-1,2-dihydropyridin-2-one]
